Measurements: article PMC5775429, “LY2087101 and dFBr share transmembrane binding sites in the (α4)3(β2)2 Nicotinic Acetylcholine Receptor” (Scientific Reports, 2018)
Values joined by “and” are separate entries in the source; they are usually repeats but may differ in a detail not shown here. Equal entries are not always repeated.

Legend:
Assay in all cases: Two-electrode voltage-clamp of ACh-induced currents in Xenopus oocytes
Type in all cases: cell-based
[1] = biological target: T1, (α4S284G)3(β2)2 nAChR (Homo sapiens, UniProt P17787+P43681, S284G); settings: 10 µM ACh + 1 µM PAM vs 10 µM ACh alone
T1 construct: expressed in transfected cells; host or cells: Xenopus laevis oocytes injected with cRNA
T1 sequence (P43681 29-627 S284G limits assumed): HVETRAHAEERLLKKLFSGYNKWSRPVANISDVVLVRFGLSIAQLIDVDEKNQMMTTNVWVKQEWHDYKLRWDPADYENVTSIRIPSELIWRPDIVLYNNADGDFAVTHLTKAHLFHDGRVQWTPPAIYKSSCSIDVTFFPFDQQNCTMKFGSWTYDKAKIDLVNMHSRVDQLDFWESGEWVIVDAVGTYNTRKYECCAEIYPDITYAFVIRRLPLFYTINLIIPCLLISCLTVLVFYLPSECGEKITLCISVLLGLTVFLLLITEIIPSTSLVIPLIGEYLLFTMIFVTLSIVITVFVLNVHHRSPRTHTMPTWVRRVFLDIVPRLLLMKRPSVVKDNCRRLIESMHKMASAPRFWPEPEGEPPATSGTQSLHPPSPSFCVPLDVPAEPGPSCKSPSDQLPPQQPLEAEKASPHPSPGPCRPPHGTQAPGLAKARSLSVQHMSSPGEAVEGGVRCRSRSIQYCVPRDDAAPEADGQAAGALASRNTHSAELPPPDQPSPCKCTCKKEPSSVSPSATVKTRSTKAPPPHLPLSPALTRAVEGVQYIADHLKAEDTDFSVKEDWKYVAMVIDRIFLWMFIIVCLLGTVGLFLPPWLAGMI
T1 sequence (P17787 26-502, stated change not applied): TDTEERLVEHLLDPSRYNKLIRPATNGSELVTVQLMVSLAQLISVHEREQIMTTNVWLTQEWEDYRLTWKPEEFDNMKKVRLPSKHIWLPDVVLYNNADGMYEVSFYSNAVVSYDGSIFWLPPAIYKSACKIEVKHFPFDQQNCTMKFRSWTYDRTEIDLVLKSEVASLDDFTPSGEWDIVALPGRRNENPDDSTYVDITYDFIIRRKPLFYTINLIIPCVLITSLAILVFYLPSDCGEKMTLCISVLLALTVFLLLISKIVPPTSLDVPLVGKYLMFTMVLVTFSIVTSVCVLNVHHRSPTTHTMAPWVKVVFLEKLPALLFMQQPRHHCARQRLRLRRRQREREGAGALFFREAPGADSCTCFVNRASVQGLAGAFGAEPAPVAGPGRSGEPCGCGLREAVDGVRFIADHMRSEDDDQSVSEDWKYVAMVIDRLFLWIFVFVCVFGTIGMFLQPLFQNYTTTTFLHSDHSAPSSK
Method: (§1) For amino acid substitutions within the α4 nAChR subunit, point mutations were introduced into pSP64ployA plasmid with cDNA encoding for human α4 nAChR subunit with mutagenic primer pairs using the Quick Change II Site-Directed Mutagenesis Kit (Agilent Technologies) then confirmed by DNA sequencing (GENEWIZ, LLC, South Plainfield, NJ). cRNA transcripts suitable for oocyte expression were prepared in vitro from linearized plasmids [α3 (BamH1), α4 (AseI), β2 (PvuII), β4 (XhoI)] using mMESSAGE mMACHINE high yield capped RNA transcription kits (Ambion) and purified on NucAway Spin column (Invitrogen). cRNA concentration was determined by spectroscopy (Concentration (ug/ul) = Abs260 * 40), aliquoted and stored at −80 °C until used.
(§2) Ovarian lobules were surgically harvested from oocytes-positive female Xenopus laevis (NASCO, Fort Atkinson, WI) according to an animal use protocol approved by the Texas A&M Health Sciences Center Institutional Animals Care and Use Committee. The Texas A&M Health Sciences Center Research Facility is registered as an animal research facility with the United States Department of Agriculture and is fully accredited by the American Association for Accreditation of Laboratory Animal Care (AAALAC). For oocytes defolliculation, ovarian lobes were treated with 3 mg/ml collagenase type 2 (Worthington Biomedical, Lakewood, NJ) in Ca + 2-free buffer (85 mM NaCl, 2.5 mM KCl, 1 mM MgCl2, 5 mM HEPES, pH 7.6). Collagenase treatment was allowed to proceed for 3 hours at room temperature with gentle shaking then oocytes were washed several times with buffer to remove collagenase then with ND96-gentamicine buffer. Healthy Stage V and VI oocytes were visually selected and maintained at 18 °C in modified ND96-gentamicine buffer (96 mM NaCl, 2 mM KCl, 1.8 mM CaCl2, 1 mM MgCl2, 5 mM HEPES, 50 µg/ml gentamicin, pH 7.6). Oocytes were injected with 50–100 ng of the desired nAChR subunits cRNA mix at ratios of 8α:1β or 1α:8β to express nAChRs with subunit stoichiometries of 3α:2β (low agonist sensitivity) or 2α:3β (high agonist sensitivity), respectively.
(§3) Oocytes were continuously perfused with recording buffer (100 mM NaCl, 2 mM KCl, 1 mM CaCl2, 0.8 mM MgCl2, 1 mM EGTA, 10 mM Hepes, pH 7.5) except during periods of drug applications.

[2] = biological target: T2, (α4L310F)3(β2)2 nAChR (Homo sapiens, UniProt P17787+P43681, L310F); settings: 10 µM ACh + 1 µM PAM vs 10 µM ACh alone
T2 construct: expressed in transfected cells; host or cells: Xenopus laevis oocytes injected with cRNA
T2 sequence (P43681 29-627 L310F limits assumed): as the sequence (P43681 29-627 S284G limits assumed) above, with G256S, L282F counted along it
T2 sequence (P17787 26-502): as the sequence (P17787 26-502, stated change not applied) above
Method: as §1, §2, §3

[3] = biological target: T3, (α4I608L)3(β2)2 nAChR (Homo sapiens, UniProt P17787+P43681, I608L); settings: 10 µM ACh + 1 µM PAM vs 10 µM ACh alone
T3 construct: expressed in transfected cells; host or cells: Xenopus laevis oocytes injected with cRNA
T3 sequence (P43681 29-627 I608L limits assumed): as the sequence (P43681 29-627 S284G limits assumed) above, with G256S, I580L counted along it
T3 sequence (P17787 26-502): as the sequence (P17787 26-502, stated change not applied) above
Method: as §1, §2, §3

[4] = biological target: (α4L256F)3(β2)2 nAChR (Homo sapiens, UniProt P43681, L256F)
Chain of (α4L256F)3(β2)2 nAChR (P43681 29-627 L256F limits assumed): as the sequence (P43681 29-627 S284G limits assumed) above, with L228F, G256S counted along it
Chain of (α4L256F)3(β2)2 nAChR (P17787 26-502 partner): as the sequence (P17787 26-502, stated change not applied) above
Method: as §1, §2, §3

[5] = biological target: (α4E308V)3(β2)2 nAChR (Homo sapiens, UniProt P43681, E308V)
Chain of (α4E308V)3(β2)2 nAChR (P43681 29-627 E308V limits assumed): as the sequence (P43681 29-627 S284G limits assumed) above, with G256S, E280V counted along it
Chain of (α4E308V)3(β2)2 nAChR (P17787 26-502 partner): as the sequence (P17787 26-502, stated change not applied) above
Method: as §1, §2, §3

[6] = biological target: T4, (α4T261D)3(β2)2 nAChR (Homo sapiens, UniProt P17787+P43681, T261D); settings: 10 µM ACh + 1 µM PAM vs 10 µM ACh alone
T4 construct: expressed in transfected cells; host or cells: Xenopus laevis oocytes injected with cRNA
T4 sequence (P43681 29-627 T261D limits assumed): as the sequence (P43681 29-627 S284G limits assumed) above, with T233D, G256S counted along it
T4 sequence (P17787 26-502): as the sequence (P17787 26-502, stated change not applied) above
Method: as §1, §2, §3

[7] = biological target: (α4G613L)3(β2)2 nAChR (Homo sapiens, UniProt P43681, G613L)
Chain of (α4G613L)3(β2)2 nAChR (P43681 29-627 G613L limits assumed): as the sequence (P43681 29-627 S284G limits assumed) above, with G256S, G585L counted along it
Chain of (α4G613L)3(β2)2 nAChR (P17787 26-502 partner): as the sequence (P17787 26-502, stated change not applied) above
Method: as §1, §2, §3

[8] = biological target: (α4S258M)3(β2)2 nAChR (Homo sapiens, UniProt P43681, S258M); settings: 10 µM ACh + 1 µM PAM vs 10 µM ACh alone
Chain of (α4S258M)3(β2)2 nAChR (P43681 29-627 S258M limits assumed): as the sequence (P43681 29-627 S284G limits assumed) above, with S230M, G256S counted along it
Chain of (α4S258M)3(β2)2 nAChR (P17787 26-502 partner): as the sequence (P17787 26-502, stated change not applied) above
Method: as §1, §2, §3

[9] = biological target: T5, (α4H332Y)3(β2)2 nAChR (Homo sapiens, UniProt P17787+P43681, H332Y); settings: 10 µM ACh + 1 µM PAM vs 10 µM ACh alone
T5 construct: expressed in transfected cells; host or cells: Xenopus laevis oocytes injected with cRNA
T5 sequence (P43681 29-627 H332Y limits assumed): as the sequence (P43681 29-627 S284G limits assumed) above, with G256S, H304Y counted along it
T5 sequence (P17787 26-502): as the sequence (P17787 26-502, stated change not applied) above
Method: as §1, §2, §3

[10] = biological target: T6, (α4I315A)3(β2)2 nAChR (Homo sapiens, UniProt P17787+P43681, I315A); settings: 10 µM ACh + 1 µM PAM vs 10 µM ACh alone
T6 construct: expressed in transfected cells; host or cells: Xenopus laevis oocytes injected with cRNA
T6 sequence (P43681 29-627 I315A limits assumed): as the sequence (P43681 29-627 S284G limits assumed) above, with G256S, I287A counted along it
T6 sequence (P17787 26-502): as the sequence (P17787 26-502, stated change not applied) above
Method: as §1, §2, §3

[11] = biological target: T7, (α4F606Y)3(β2)2 nAChR (Homo sapiens, UniProt P17787+P43681, F606Y)
T7 construct: expressed in transfected cells; host or cells: Xenopus laevis oocytes injected with cRNA
T7 sequence (P43681 29-627 F606Y limits assumed): as the sequence (P43681 29-627 S284G limits assumed) above, with G256S, F578Y counted along it
T7 sequence (P17787 26-502): as the sequence (P17787 26-502, stated change not applied) above
Method: as §1, §2, §3

[12] = biological target: T8, (α4M605I)3(β2)2 nAChR (Homo sapiens, UniProt P17787+P43681, M605I); settings: 10 µM ACh + 1 µM PAM vs 10 µM ACh alone
T8 construct: expressed in transfected cells; host or cells: Xenopus laevis oocytes injected with cRNA
T8 sequence (P43681 29-627 M605I limits assumed): as the sequence (P43681 29-627 S284G limits assumed) above, with G256S, M577I counted along it
T8 sequence (P17787 26-502): as the sequence (P17787 26-502, stated change not applied) above
Method: as §1, §2, §3

[13] = biological target: T9, (α4)3(β2)2 nAChR (Homo sapiens, UniProt P17787+P43681)
T9 construct: expressed in transfected cells; host or cells: Xenopus laevis oocytes injected with cRNA
T9 sequence (P43681 29-627 limits assumed): as the sequence (P43681 29-627 S284G limits assumed) above, with G256S counted along it
T9 sequence (P17787 26-502): as the sequence (P17787 26-502, stated change not applied) above
Method: To begin to characterize LY2087101 interaction with the heteropentameric α4β2 nAChRs, we examined the selectivity of LY2087101 for the two α4β2 nAChR isoforms; high-agonist sensitivity (α4)2(β2)3 and low-agonist sensitivity (α4)3(β2)2 nAChRs. Xenopus oocytes were injected with α4 and β2 subunits RNAs at ratios 8:1 and 1:8 to favor expression of (α4)3(β2)2 and (α4)2(β2)3 nAChRs, respectively.
as §2, §3

[14] = biological target: T10, α4β2 nAChR (Homo sapiens, UniProt P17787+P43681); settings: 1 μM PAM
T10 construct: expressed in transfected cells; host or cells: Xenopus laevis oocytes injected with cRNA
T10 sequence (P43681 29-627 limits assumed): as the sequence (P43681 29-627 S284G limits assumed) above, with G256S counted along it
T10 sequence (P17787 26-502): as the sequence (P17787 26-502, stated change not applied) above
Method: (§4) Next, Xenopus oocytes were injected with RNA mixes of […], α3:β4, […], or α4:β4 at ratios of 8:1, 1:1, or 1:8 to express nAChRs with different subunit composition and with various α:β ratios.
as §2, §3

[15] = biological target: T11, α4β4 nAChR (Homo sapiens, UniProt P30926+P43681); settings: 1 μM PAM
T11 construct: expressed in transfected cells; host or cells: Xenopus laevis oocytes injected with cRNA
T11 sequence (P43681 29-627 limits assumed): as the sequence (P43681 29-627 S284G limits assumed) above, with G256S counted along it
T11 sequence (P30926 22-498): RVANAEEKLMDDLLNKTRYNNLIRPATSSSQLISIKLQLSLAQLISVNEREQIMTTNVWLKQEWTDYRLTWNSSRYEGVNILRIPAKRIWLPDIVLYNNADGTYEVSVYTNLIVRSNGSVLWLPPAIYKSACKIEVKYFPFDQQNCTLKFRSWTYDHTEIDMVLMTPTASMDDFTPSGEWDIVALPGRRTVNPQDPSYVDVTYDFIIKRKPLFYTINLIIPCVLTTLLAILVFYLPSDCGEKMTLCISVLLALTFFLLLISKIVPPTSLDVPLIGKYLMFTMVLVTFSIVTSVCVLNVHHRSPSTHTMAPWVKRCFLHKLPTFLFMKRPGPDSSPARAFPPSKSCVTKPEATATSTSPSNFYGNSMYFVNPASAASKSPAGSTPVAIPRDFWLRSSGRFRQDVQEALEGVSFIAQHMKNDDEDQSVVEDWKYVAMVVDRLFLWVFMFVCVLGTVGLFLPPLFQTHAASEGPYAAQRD
Method: as §4, §2, §3

[16] = 10 µM ACh + 1 µM PAM vs 10 µM ACh alone
[17] = ACh concentration-response curve, normalized to 1 mM ACh alone
[18] = read-out: inhibition of ACh-current response at 10 μM dFBr

## C=CC(C)(C)c1[nH]c2cc(Br)ccc2c1CCNC [dFBr]
[1]
  R, potentiation ratio (PR): 2.8 ± 0.4
[2]
  R, potentiation ratio (PR): 5.6 ± 0.3
[3]
  R, potentiation ratio (PR): 5.4 ± 0.4
[4]; [16]
  R, potentiation ratio (PR): 1.0 and ~ 1 and 1.0 ± 0.1
[4]; [17]
  ACh Imax in the presence of 1 µM dFBr: 142 ± 08%
[4]; dFBr up to 10 µM, 10 μM ACh
  dFBr concentration-dependent potentiation of ACh-current responses: did not potentiate
[4]; [18]
  inhibition at 10 µM: ~25%
[5]; [16]
  R, potentiation ratio (PR): 1.0 and 1.0 ± 0.1
[5]; [17]
  ACh Imax in the presence of 1 µM dFBr: 110 ± 06%
[5]; dFBr up to 10 µM, 10 μM ACh
  dFBr concentration-dependent potentiation of ACh-current responses: did not potentiate
[5]; [18]
  inhibition at 10 µM: ~45%
[6]
  R, potentiation ratio (PR): ~ 2.1 and 2.1 ± 0.1
[7]; [16]
  R, potentiation ratio (PR): 0.8 and 0.8 ± 0.1
[7]; [17]
  ACh Imax in the presence of 1 µM dFBr: 157 ± 19%
[7]; dFBr up to 10 µM, 10 μM ACh
  dFBr concentration-dependent potentiation of ACh-current responses: did not potentiate
[7]; [18]
  inhibition at 10 µM: ~65%
[8]
  R, potentiation ratio (PR): 5.0 ± 0.5
[9]
  R, potentiation ratio (PR): 5.5 ± 0.4
[10]
  R, potentiation ratio (PR): 1.2 and ~ 1.2 and 1.2 ± 0.2
[11]; [16]
  R, potentiation ratio (PR): 3.1 ± 0.4
[11]; [17]
  ACh Imax in the presence of 1 µM dFBr: 159 ± 07%
[12]
  R, potentiation ratio (PR): 4.5 ± 0.3
[13]; 10 µM ACh + 1 µM PAM vs 10 µM ACh alone, WT
  R, potentiation ratio (PR): 4.4 ± 0.2
[13]; co-applied with 10 μM ACh, WT
  dFBr potentiation h (Hill coefficient): 1.1 ± 0.2
[13]; normalized to 10 µM ACh alone, WT
  dFBr potentiation Imax: 580 ± 42%
[13]; read-out: dFBr potentiation EC50
  EC50: 1000 ± 300 nM
[14]
  potentiation of ACh responses: potentiated
[15]
  potentiation of ACh responses: did not potentiate
